Each compound was assayed on hedgehog signaling pathway (assay: Gli-Luc Reporter Assay for Hh Pathway Inhibition (TMHh-12 cells, pTA-8×Gli-Luc reporter)). Settings: Mus musculus, TMHh12, Ag1.5 1 nM; read-out: Hedgehog Inhibition IC50 (nM) (Ag1.5 1 nM).
Type: cell-based, Mouse
Summary of the method: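 Mouse TM3 cells stably carrying an 8×Gli-firefly luciferase reporter, in 2% FBS medium; pathway activated with recombinant mouse Shh (8 μg/mL) or Smo agonist, compounds added at varying concentrations for 48 h. Luminescence read; IC50 at 50% signal reduction. Toxicity checked in TM3 cells (CellTiter-Glo) or constitutive-luciferase TM3-Luc cells.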

IC50 [nM] | SMILES
0.86 | CC1(C)CC(N2CCc3c(cccc3Nc3ccc(Cl)c(-c4ncc(-c5ccccc5)[nH]4)c3)C2)CC(C)(C)N1 [Compound 21]
0.0017 | O=C(NCCO)N1CCc2c(cccc2Nc2ccc(Cl)c(-c3ncc(-c4ccccc4)[nH]3)c2)C1 [Compound 42]
0.25 | CS(=O)(=O)CC(=O)N1CCc2c(cccc2Nc2ccc(Cl)c(-c3ncc(-c4ccccc4)[nH]3)c2)C1 [Compound 7]
90 | Cc1ccc(Nc2cccc3c2CCN(S(C)(=O)=O)C3)cc1-c1ccc(C(F)(F)F)cc1 [Compound 136]
5.3 | CCC(CC)(C(=O)O)C(=O)N1CCc2c(cccc2Nc2ccc(Cl)c(-c3nc(-c4ccccc4)c[nH]3)c2)C1 [Compound 66]
2 | Clc1ccc(Nc2cccc3c2CCN(CC2CCCCC2)C3)cc1-c1ncc(-c2ccccc2)[nH]1 [Compound 23]

Same assay, conditions: Mus musculus, TMHh12, enzymatic and cellular assays for the inhibition of hedgehog signaling pathways; read-out: IC50 Ranges

SMILES | IC50 [nM]
CS(=O)(=O)N1CCc2c(cccc2Nc2ccc(F)c(-c3ccc(C#N)cc3)c2)C1 [Compound 131] | 10 to 100
COc1cnc(-c2cc(Nc3cccc4c3CCN(S(C)(=O)=O)C4)ccc2C)nc1 [Compound 176] | 10 to 100
COc1cnnc(-c2cc(Nc3cccc4c3CCN(S(C)(=O)=O)C4)ccc2C)c1 [Compound 270] | 10 to 100
Cc1ccc(Nc2cccc3c2CCN(CCS(C)(=O)=O)C3)cc1C(=O)Nc1ccccc1 [Compound 246] | 10 to 100
COc1ccc(-c2cc(Nc3cccc4c3CCN(S(C)(=O)=O)C4)ccc2C)cc1 [Compound 99] | 10 to 100
Cc1ccc(Nc2cccc3c2CCN(S(C)(=O)=O)C3)cc1-c1cnc(C#N)cn1 [Compound 208] | 100 to 1000
COC(=O)c1ccc(-c2cc(Nc3cccc4c3CCN(S(C)(=O)=O)C4)ccc2C)cc1 [Compound 141] | 100 to 1000
CCOc1cnc(-c2nc(Nc3cccc4c3CCN(S(=O)(=O)C(C)C)C4)ccc2C)cn1 [Compound 336] | 10 to 100
Cc1ccc(Nc2cccc3c2CCN(S(C)(=O)=O)C3)cc1-c1ccc(C(F)(F)F)cc1 [Compound 136] | 10 to 100
Cc1ccc(Nc2nccc3c2CCN(C2CS(=O)(=O)C2)C3)cc1-c1cc2ccccc2cn1 [Compound 332] | 10 to 100
Cc1ccc(Nc2cccc3c2CCN(CC(C)(C)O)C3)cc1-c1ccc(F)cn1 [Compound 181] | 1 to 10
CS(=O)(=O)N1CCc2c(cccc2Nc2ccc(Cl)c(-c3ccc(F)cn3)n2)C1 [Compound 303] | 1 to 10
CS(=O)(=O)CCN1CCc2c(cccc2Nc2ccc(Cl)c(-c3ccc(F)cn3)n2)C1 [Compound 302] | 10 to 100
CCS(=O)(=O)CCN1CCc2c(cccc2Nc2ccc(C)c(-c3ccc(OC)nn3)c2)C1 [Compound 282] | 1 to 10
Cc1ccc(Nc2cccc3c2CCN(S(C)(=O)=O)C3)cc1Oc1ccccn1 [Compound 214] | 100 to 1000
Clc1ccc(Nc2cccc3c2CCN(c2nn[nH]n2)C3)cc1-c1ncc(-c2ccccc2)[nH]1 [Compound 87] | 1 to 10
Cc1nc(-c2ccc(-c3cc(Nc4cccc5c4CCN(S(C)(=O)=O)C5)ccc3C)cc2)cs1 [Compound 120] | 10 to 100
Cc1ccc(Nc2cccc3c2CCN(S(C)(=O)=O)C3)cc1-c1cc2ccccc2[nH]1 [Compound 151] | 10 to 100
CS(=O)(=O)N1CCc2c(cccc2Nc2ccc(C(=O)O)c(-c3ccc(C#N)cc3)c2)C1 [Compound 172] | > 10000
CCS(=O)(=O)CCN1CCc2c(cccc2Nc2ccc(C)c(-c3ccc(F)cn3)c2)C1 [Compound 281] | 1 to 10
CCOc1ccc(-c2nc(Nc3cccc4c3CCN(S(=O)(=O)C(C)C)C4)ccc2C)nn1 [Compound 328] | 1 to 10
Cc1ccc(Nc2nccc3c2CCN(S(C)(=O)=O)C3)cc1C(=O)Nc1ccccc1 [Compound 247] | 10 to 100
CCOc1cnc(-c2cc(Nc3cccc4c3CCN(C3CCS(=O)(=O)C3)C4)ccc2C)cn1 (stereo not drawn) [Compound 308] | 1 to 10
CCOc1ccc(-c2nc(Nc3cccc4c3CCN(C3CCS(=O)(=O)C3)C4)ccc2C)nn1 (stereo not drawn) [Compound 334] | 10 to 100
Cc1ccc(Nc2cccc3c2CCN(S(C)(=O)=O)C3)cc1-c1cccc(C#N)c1 [Compound 119] | 10 to 100
C[C@@H](C(=O)O)N1CCc2c(cccc2Nc2ccc(Cl)c(-c3nc(-c4ccccc4)c[nH]3)c2)C1 [Compound 79] | 1 to 10
C[S+]([O-])CCCN1CCc2c(cccc2Nc2ccc(Cl)c(-c3ncc(-c4ccccc4)[nH]3)c2)C1 (stereo not drawn) [Compound 47] | 1 to 10
Cc1ccc(Nc2cccc3c2CCN(S(C)(=O)=O)C3)cc1-c1ccc(C(=O)NCCO)cc1 [Compound 145] | 100 to 1000

Further lines, results first:

IC50 [nM] | SMILES
0.001 to 1 | CC1(C)CC(N2CCc3c(cccc3Nc3ccc(Cl)c(-c4ncc(-c5ccccc5)[nH]4)c3)C2)CC(C)(C)N1 [Compound 21]
0.001 to 1 | O=C(NCCO)N1CCc2c(cccc2Nc2ccc(Cl)c(-c3ncc(-c4ccccc4)[nH]3)c2)C1 [Compound 42]
0.001 to 1 | COc1ccc(-c2cc(Nc3cccc4c3CCN(S(C)(=O)=O)C4)ccc2C)nc1 [Compound 174]
0.001 to 1 | CS(=O)(=O)CC(=O)N1CCc2c(cccc2Nc2ccc(Cl)c(-c3ncc(-c4ccccc4)[nH]3)c2)C1 [Compound 7]
1 to 10 | Cc1ccc(Nc2cccc3c2CCN(C(=O)C(C)(CO)CO)C3)cc1-c1ncc(-c2cccnc2)[nH]1 [Compound 76]
0.001 to 1 | OCC(O)CN1CCC(N2CCc3c(cccc3Nc3ccc(Cl)c(-c4ncc(-c5ccccc5)[nH]4)c3)C2)CC1 (stereo not drawn) [Compound 40]
1 to 10 | CCOc1ccc(-c2cc(Nc3cccc4c3CCN(C3CCS(=O)(=O)CC3)C4)ccc2C)nn1 [Compound 327]
1 to 10 | CCOc1cnc(-c2cc(Nc3cccc4c3CCN(C3CS(=O)(=O)C3)C4)ccc2C)cn1 [Compound 313]
1 to 10 | Cc1ccc(Nc2cccc3c2CCN(S(C)(=O)=O)C3)nc1-c1ccccn1 [Compound 312]
1 to 10 | CCOc1ccc(-c2cc(Nc3cccc4c3CCN([C@@H]3CCS(=O)(=O)C3)C4)ccc2C)nn1 [Compound 339]
1 to 10 | Cc1ccc(-c2cc(Nc3cccc4c3CCN(S(C)(=O)=O)C4)ccc2C)nn1 [Compound 170]
0.001 to 1 | O=S(=O)(NCCO)N1CCc2c(cccc2Nc2ccc(Cl)c(-c3ncc(-c4ccccc4)[nH]3)c2)C1 [Compound 17]
0.001 to 1 | O=C([C@H](O)CO)N1CCc2c(cccc2Nc2ccc(Cl)c(-c3nc(-c4ccccc4)c[nH]3)c2)C1 [Compound 38]
0.001 to 1 | Cc1ccc(Nc2cccc3c2CCN(CC(F)(F)CO)C3)cc1-c1ccc(C#N)cn1 [Compound 211]
0.001 to 1 | Cc1ccc(Nc2cccc3c2CCN(C2CS(=O)(=O)C2)C3)cc1-c1cc2ccccc2cn1 [Compound 316]
0.001 to 1 | Cc1ccnc(-c2cc(Nc3cccc4c3CCN(S(C)(=O)=O)C4)ccc2C)c1 [Compound 192]
0.001 to 1 | Cc1ccc(Nc2ncnc3c2CCN(S(=O)(=O)C(C)C)C3)cc1-c1ccc(F)cn1 [Compound 300]
0.001 to 1 | Cc1ccc(Nc2cccc3c2CCN(C2CCS(=O)(=O)CC2)C3)cc1-c1ncccc1F [Compound 269]
1 to 10 | CCC(CC)(C(=O)O)C(=O)N1CCc2c(cccc2Nc2ccc(Cl)c(-c3nc(-c4ccccc4)c[nH]3)c2)C1 [Compound 66]
0.001 to 1 | O=C(C(O)CO)N1CCc2c(cccc2Nc2ccc(Cl)c(-c3ncc(-c4ccccc4)[nH]3)c2)C1 (stereo not drawn) [Compound 9]
0.001 to 1 | Cc1ccc(Nc2cccc3c2CCN(C2CCS(=O)(=O)C2)C3)cc1-c1ncccc1F (stereo not drawn) [Compound 268]
0.001 to 1 | COc1ccnc(-c2cc(Nc3cccc4c3CCN(S(C)(=O)=O)C4)ccc2C)c1 [Compound 230]
0.001 to 1 | Cc1ccc(Nc2cccc3c2CCN(S(C)(=O)=O)C3)cc1-c1ccc2ccccc2n1 [Compound 231]
0.001 to 1 | O=C([C@@H](O)CO)N1CCc2c(cccc2Nc2ccc(Cl)c(-c3nc(-c4ccccc4)c[nH]3)c2)C1 [Compound 27]
1 to 10 | Clc1ccc(Nc2cccc3c2CCN(CC2CCCCC2)C3)cc1-c1ncc(-c2ccccc2)[nH]1 [Compound 23]

Same assay, conditions: enzymatic and cellular assays for the inhibition of hedgehog signaling pathways; read-out: IC50 Ranges

IC50 [nM] | SMILES
10 to 100 | Cc1ccc(Nc2cccc3c2CCN(C2CCS(=O)(=O)CC2)C3)cc1-c1ncc(-c2cccnc2)[nH]1 [Compound 52]

From patent publication US9216964B2, “Hedgehog pathway modulators” (Novartis AG, priority 2008, dated 2015)
